Data published in article PMC10633873 (ACS Omega, 2023).
Starred links: 1 amine or outer side, 2 acyl side, 3 side chain; linkers in the order of their positions; H or OH if unused. Positions of bridges follow the written chain, without caps; N, C: chain ends. Non-standard residues stand in square brackets, D forms with d. Residues, ends and D or L forms follow the SMILES beside them. Chains are numbered I, II in the order given. Actinocin(9to1) = Cc1c2oc3c(C)ccc(C(=O)[*:1])c3nc-2c(C(=O)[*:2])c(N)c1=O; NMeV = CN[C@H](C(=O)O)C(C)C; Sar = CNCC(=O)O

Key:
[1] = molecular target: T1, HEV-RdRp (Hepatitis E virus genotype 1, UniProt P33424); assay: HEV-RdRp enzyme activity; format: biochemical
T1 sequence (P33424 1207-1693 limits assumed): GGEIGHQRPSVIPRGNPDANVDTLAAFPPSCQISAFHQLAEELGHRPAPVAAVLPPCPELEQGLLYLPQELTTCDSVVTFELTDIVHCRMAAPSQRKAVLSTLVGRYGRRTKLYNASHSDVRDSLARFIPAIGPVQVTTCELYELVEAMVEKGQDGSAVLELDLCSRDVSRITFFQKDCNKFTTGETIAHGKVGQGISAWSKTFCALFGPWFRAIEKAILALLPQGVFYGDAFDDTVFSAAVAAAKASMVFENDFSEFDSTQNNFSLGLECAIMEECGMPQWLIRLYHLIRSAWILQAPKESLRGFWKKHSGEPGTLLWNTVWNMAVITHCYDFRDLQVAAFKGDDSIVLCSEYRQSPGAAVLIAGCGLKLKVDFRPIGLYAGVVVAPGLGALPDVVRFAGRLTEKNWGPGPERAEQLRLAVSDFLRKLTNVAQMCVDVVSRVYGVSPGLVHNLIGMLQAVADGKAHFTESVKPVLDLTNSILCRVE

[2] = Cell viability by MTT assay; format: cell-based; details: human, Huh7 cells
[3] = test system: HEV genotype 3 (pSHEV-3); assay: Viral RNA copy number by qPCR in Huh7 cells transfected with full-length HEV RNA; format: cell-based, Hepatitis E virus; details: 5 days post transfection, vs untreated cells
[4] = test system: HEV; assay: Immunofluorescence assay of ORF2 expression in HEV RNA-transfected Huh7 cells; format: cell-based, Hepatitis E virus; details: Huh7, anti-HEV-ORF2, 4–5 days after transfection
[5] = test system: HEV; assay: Effect on viral replication; format: cell-based, Hepatitis E virus; details: concentration and assay not stated

Compound	IC50 [1] [µM]	effect on polymerase activity of HEV-RdRp [1]	CC50 at 72 h [2] [µM]	also measured
Cc1c2oc3c(C)ccc(C(=O)N[C@@H]4C(=O)N[C@H](C(C)C)C(=O)N5CCC[C@H]5C(=O)N(C)CC(=O)N(C)[C@@H](C(C)C)C(=O)O[C@@H]4C)c3nc-2c(C(=O)N[C@@H]2C(=O)N[C@H](C(C)C)C(=O)N3CCC[C@H]3C(=O)N(C)CC(=O)N(C)[C@@H](C(C)C)C(=O)O[C@@H]2C)c(N)c1=O [actinomycin-D] (I: T[dV]P[Sar][NMeV] / II: T[dV]P[Sar][NMeV]; ester I:1-I:C, II:1-II:C; linker I:N-II:N via Actinocin(9to1))				effect on enzyme activity of RdRp ([1]; 5 μM actinomycin-D added to the reaction mixture): no significant effect
Nc1nc2c(ncn2[C@@H]2O[C@H](COP(=O)(O)OP(=O)(O)OP(=O)(O)O)[C@@H](O)[C@H]2O)c(=O)[nH]1 [GTP]				Km ([1]; GTP varied 0 to 8 mM, 5 μM enzyme, poly(C) 1 μg, Michaelis–Menten fit): 400 µM
CC(C)OC(=O)[C@H](C)N[P@](=O)(OC[C@H]1O[C@@H](n2ccc(=O)[nH]c2=O)[C@](C)(F)[C@@H]1O)Oc1ccccc1 [sofosbuvir]	5.2 ± 2.9	reduced the polymerase activity	< 125	% reduction of viral RNA ([3]; 125 μM): ∼68%
NC(=O)c1ncn([C@@H]2O[C@H](CO)[C@@H](O)[C@H]2O)n1 [ribavirin]	3.5 ± 1.6	reduced the polymerase activity	< 100	% reduction of viral RNA ([3]; 100 μM): ∼72%
CCc1cc(CC[C@]2(C3CCCC3)CC(O)=C(Cc3nc4nc(C)cc(C)n4n3)C(=O)O2)cc(CC)n1 [filibuvir]		reduced the polymerase activity		
NC(=O)c1nc(F)c[nH]c1=O [favipiravir]	10.2 ± 4.9	reduced the polymerase activity	< 500	effect on HEV replication (ORF2 mean fluorescence intensity) [4]: significantly inhibited HEV replication
CCC(CC)COC(=O)[C@H](C)N[P@](=O)(OC[C@H]1O[C@@](C#N)(c2ccc3c(N)ncnn23)[C@H](O)[C@@H]1O)Oc1ccccc1 [remdesivir]		did not show any effect		
Nc1ccn([C@@H]2CS[C@H](CO)O2)c(=O)n1 [lamivudine]				effect on in vitro enzyme activity of HEV-RdRp ([1]; concentration not given): inhibited; effect on viral replication [5]: did not show any effect
